In the supplement of paper PMC10307832:

Key:
Test in all cases: relative viability (nuclei count vs DMSO), 5 days (fraction); higher = more cells survive
201T = tested on: 201T
Procedure, shortened: (§1)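 Each reported value is a median over duplicate plates. It expresses relative viability: treated-well nuclei count divided by vehicle-well nuclei count. Lung cancer cell lines in 1536-well plates were dosed by pin tool a day after seeding, alone with one drug or with a fixed anchor-drug dose plus five library-drug doses (not always all listed) in √10 steps, and nuclei were counted after 5 days.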

EKVX = tested on: EKVX
Procedure, shortened: as §1

EPLC-272H = tested on: EPLC-272H
Procedure, shortened: as §1

H3255 = tested on: H3255
Procedure, shortened: as §1

HCC-15 = tested on: HCC-15
Procedure, shortened: as §1

HCC-827 = tested on: HCC-827
Procedure, shortened: as §1

LCLC-97TM1 = tested on: LCLC-97TM1
Procedure, shortened: as §1

NCI-H1395 = tested on: NCI-H1395
Procedure, shortened: as §1

NCI-H1648 = tested on: NCI-H1648
Procedure, shortened: as §1

NCI-H1651 = tested on: NCI-H1651
Procedure, shortened: as §1

NCI-H1792 = tested on: NCI-H1792
Procedure, shortened: as §1

NCI-H1915 = tested on: NCI-H1915
Procedure, shortened: as §1

NCI-H322M = tested on: NCI-H322M
Procedure, shortened: as §1

NCI-H358 = tested on: NCI-H358
Procedure, shortened: as §1

NCI-H460 = tested on: NCI-H460
Procedure, shortened: as §1

NCI-H596 = tested on: NCI-H596
Procedure, shortened: as §1

NCI-H647 = tested on: NCI-H647
Procedure, shortened: as §1

SW 900 = tested on: SW 900
Procedure, shortened: as §1

COR-L 105 = tested on: COR-L 105
Procedure, shortened: as §1

COR-L23 = tested on: COR-L23
Procedure, shortened: as §1

NCI-H1650 = tested on: NCI-H1650
Procedure, shortened: as §1

NCI-H2023 = tested on: NCI-H2023
Procedure, shortened: as §1

NCI-H520 = tested on: NCI-H520
Procedure, shortened: as §1

SK-MES-1 = tested on: SK-MES-1
Procedure, shortened: as §1

Oc1nc(-c2ccc(C(F)(F)F)cc2)nc2c1CSCC2 [XAV939] + NC(=O)Nc1cc(-c2cccc(F)c2)sc1C(=O)N[C@H]1CCCNC1 [AZD7762] (partner 0.2 µM)
relative viability (201T; first compound 0.08 µM): 0.781
relative viability (201T; first compound 0.253 µM): 0.497
relative viability (201T; first compound 0.8 µM): 0.724
relative viability (201T; first compound 2.53 µM): 0.64
relative viability (EKVX; first compound 0.08 µM): 0.685
relative viability (EKVX; first compound 0.253 µM): 0.646
relative viability (EKVX; first compound 0.8 µM): 0.362
relative viability (EKVX; first compound 2.53 µM): 0.56
relative viability (EPLC-272H; first compound 0.08 µM): 0.229
relative viability (EPLC-272H; first compound 0.253 µM): 0.18
relative viability (EPLC-272H; first compound 0.8 µM): 0.193
relative viability (EPLC-272H; first compound 2.53 µM): 0.0888
relative viability (H3255; first compound 0.08 µM): 0.858
relative viability (H3255; first compound 0.253 µM): 0.753
relative viability (H3255; first compound 0.8 µM): 0.773
relative viability (H3255; first compound 2.53 µM): 0.669
relative viability (HCC-15; first compound 0.08 µM): 1.31
relative viability (HCC-15; first compound 0.253 µM): 1.15
relative viability (HCC-15; first compound 0.8 µM): 1.21
relative viability (HCC-15; first compound 2.53 µM): 1.08
relative viability (HCC-827; first compound 0.08 µM): 0.228
relative viability (HCC-827; first compound 0.253 µM): 0.195
relative viability (HCC-827; first compound 0.8 µM): 0.213
relative viability (HCC-827; first compound 2.53 µM): 0.177
relative viability (LCLC-97TM1; first compound 0.08 µM): 0.446
relative viability (LCLC-97TM1; first compound 0.8 µM): 0.208
relative viability (LCLC-97TM1; first compound 2.53 µM): 0.172
relative viability (NCI-H1395; first compound 0.08 µM): 0.389
relative viability (NCI-H1395; first compound 0.253 µM): 0.384
relative viability (NCI-H1395; first compound 0.8 µM): 0.377
relative viability (NCI-H1395; first compound 2.53 µM): 0.366
relative viability (NCI-H1648; first compound 0.253 µM): 0.501
relative viability (NCI-H1648; first compound 0.8 µM): 0.699
relative viability (NCI-H1648; first compound 2.53 µM): 0.598
relative viability (NCI-H1651; first compound 0.08 µM): 0.518
relative viability (NCI-H1651; first compound 0.253 µM): 0.429
relative viability (NCI-H1651; first compound 0.8 µM): 0.383
relative viability (NCI-H1651; first compound 2.53 µM): 0.389
relative viability (NCI-H1792; first compound 0.08 µM): 0.823
relative viability (NCI-H1792; first compound 0.253 µM): 0.595
relative viability (NCI-H1792; first compound 0.8 µM): 0.636
relative viability (NCI-H1792; first compound 2.53 µM): 0.591
relative viability (NCI-H1915; first compound 0.08 µM): 0.898
relative viability (NCI-H1915; first compound 0.253 µM): 0.674
relative viability (NCI-H1915; first compound 0.8 µM): 0.693
relative viability (NCI-H1915; first compound 2.53 µM): 0.665
relative viability (NCI-H322M; first compound 0.08 µM): 0.573
relative viability (NCI-H322M; first compound 0.253 µM): 0.45
relative viability (NCI-H322M; first compound 0.8 µM): 0.539
relative viability (NCI-H322M; first compound 2.53 µM): 0.495
relative viability (NCI-H358; first compound 0.08 µM): 0.476
relative viability (NCI-H358; first compound 0.253 µM): 0.438
relative viability (NCI-H358; first compound 0.8 µM): 0.344
relative viability (NCI-H358; first compound 2.53 µM): 0.448
relative viability (NCI-H460; first compound 0.08 µM): 0.765
relative viability (NCI-H460; first compound 0.253 µM): 0.631
relative viability (NCI-H460; first compound 0.8 µM): 0.636
relative viability (NCI-H460; first compound 2.53 µM): 0.551
relative viability (NCI-H596; first compound 0.08 µM): 0.918
relative viability (NCI-H596; first compound 0.253 µM): 0.896
relative viability (NCI-H596; first compound 0.8 µM): 1.02
relative viability (NCI-H596; first compound 2.53 µM): 1.02
relative viability (NCI-H647; first compound 0.08 µM): 0.489
relative viability (NCI-H647; first compound 0.253 µM): 0.351
relative viability (NCI-H647; first compound 0.8 µM): 0.319
relative viability (NCI-H647; first compound 2.53 µM): 0.412
relative viability (SW 900; first compound 0.253 µM): 0.616
relative viability (SW 900; first compound 0.8 µM): 0.599
relative viability (SW 900; first compound 2.53 µM): 0.501

Oc1nc(-c2ccc(C(F)(F)F)cc2)nc2c1CSCC2 [XAV939] + O=C(CCCCCCC(=O)Nc1ccccc1)NO [Vorinostat] (partner 1 µM)
relative viability (201T; first compound 0.08 µM): 1.07
relative viability (201T; first compound 0.253 µM): 0.794
relative viability (201T; first compound 0.8 µM): 0.832
relative viability (201T; first compound 2.53 µM): 0.779
relative viability (COR-L 105; first compound 0.08 µM): 0.85
relative viability (COR-L 105; first compound 0.253 µM): 0.659
relative viability (COR-L 105; first compound 0.8 µM): 0.719
relative viability (COR-L 105; first compound 2.53 µM): 0.65
relative viability (COR-L23; first compound 0.08 µM): 0.443
relative viability (COR-L23; first compound 0.253 µM): 0.472
relative viability (COR-L23; first compound 0.8 µM): 0.483
relative viability (COR-L23; first compound 2.53 µM): 0.39
relative viability (EKVX; first compound 0.08 µM): 0.816
relative viability (EKVX; first compound 0.8 µM): 0.678
relative viability (EKVX; first compound 2.53 µM): 0.423
relative viability (EPLC-272H; first compound 0.08 µM): 0.369
relative viability (EPLC-272H; first compound 0.253 µM): 0.339
relative viability (EPLC-272H; first compound 0.8 µM): 0.746
relative viability (EPLC-272H; first compound 2.53 µM): 0.324
relative viability (H3255; first compound 0.08 µM): 0.809
relative viability (H3255; first compound 0.253 µM): 0.692
relative viability (H3255; first compound 0.8 µM): 0.648
relative viability (H3255; first compound 2.53 µM): 0.712
relative viability (HCC-15; first compound 0.08 µM): 0.824
relative viability (HCC-15; first compound 0.253 µM): 0.742
relative viability (HCC-15; first compound 0.8 µM): 0.837
relative viability (HCC-15; first compound 2.53 µM): 0.692
relative viability (HCC-827; first compound 0.08 µM): 0.872
relative viability (HCC-827; first compound 0.253 µM): 0.867
relative viability (HCC-827; first compound 0.8 µM): 0.803
relative viability (HCC-827; first compound 2.53 µM): 0.686
relative viability (LCLC-97TM1; first compound 0.08 µM): 1.05
relative viability (LCLC-97TM1; first compound 0.253 µM): 0.686
relative viability (LCLC-97TM1; first compound 2.53 µM): 0.449
relative viability (NCI-H1395; first compound 0.08 µM): 0.746
relative viability (NCI-H1395; first compound 0.253 µM): 0.774
relative viability (NCI-H1395; first compound 0.8 µM): 0.725
relative viability (NCI-H1395; first compound 2.53 µM): 0.849
relative viability (NCI-H1648; first compound 0.253 µM): 0.522
relative viability (NCI-H1648; first compound 0.8 µM): 0.315
relative viability (NCI-H1648; first compound 2.53 µM): 0.285
relative viability (NCI-H1650; first compound 0.08 µM): 0.909
relative viability (NCI-H1650; first compound 0.253 µM): 0.524
relative viability (NCI-H1650; first compound 0.8 µM): 0.391
relative viability (NCI-H1650; first compound 2.53 µM): 0.525
relative viability (NCI-H1651; first compound 0.08 µM): 0.546
relative viability (NCI-H1651; first compound 0.253 µM): 0.529
relative viability (NCI-H1651; first compound 0.8 µM): 0.555
relative viability (NCI-H1651; first compound 2.53 µM): 0.512
relative viability (NCI-H1915; first compound 0.08 µM): 0.603
relative viability (NCI-H1915; first compound 0.253 µM): 0.51
relative viability (NCI-H1915; first compound 0.8 µM): 0.5
relative viability (NCI-H1915; first compound 2.53 µM): 0.498
relative viability (NCI-H2023; first compound 0.08 µM): 0.795
relative viability (NCI-H2023; first compound 0.253 µM): 0.552
relative viability (NCI-H2023; first compound 0.8 µM): 0.574
relative viability (NCI-H2023; first compound 2.53 µM): 0.461
relative viability (NCI-H322M; first compound 0.08 µM): 1.1
relative viability (NCI-H322M; first compound 0.253 µM): 0.805
relative viability (NCI-H322M; first compound 0.8 µM): 0.826
relative viability (NCI-H322M; first compound 2.53 µM): 0.622
relative viability (NCI-H358; first compound 0.08 µM): 0.796
relative viability (NCI-H358; first compound 0.253 µM): 0.49
relative viability (NCI-H358; first compound 0.8 µM): 0.658
relative viability (NCI-H358; first compound 2.53 µM): 0.565
relative viability (NCI-H460; first compound 0.08 µM): 0.943
relative viability (NCI-H460; first compound 0.253 µM): 0.46
relative viability (NCI-H460; first compound 0.8 µM): 0.649
relative viability (NCI-H460; first compound 2.53 µM): 0.433
relative viability (NCI-H520; first compound 0.08 µM): 0.722
relative viability (NCI-H520; first compound 0.8 µM): 0.747
relative viability (NCI-H520; first compound 2.53 µM): 0.717
relative viability (NCI-H596; first compound 0.08 µM): 0.642
relative viability (NCI-H596; first compound 0.253 µM): 0.623
relative viability (NCI-H596; first compound 0.8 µM): 0.587
relative viability (NCI-H596; first compound 2.53 µM): 0.543
relative viability (NCI-H647; first compound 0.08 µM): 0.581
relative viability (NCI-H647; first compound 0.253 µM): 0.545
relative viability (NCI-H647; first compound 0.8 µM): 0.496
relative viability (NCI-H647; first compound 2.53 µM): 0.207
relative viability (SK-MES-1; first compound 0.08 µM): 1.1
relative viability (SK-MES-1; first compound 0.253 µM): 0.954
relative viability (SK-MES-1; first compound 0.8 µM): 0.92
relative viability (SK-MES-1; first compound 2.53 µM): 0.831
relative viability (SW 900; first compound 0.253 µM): 0.528
relative viability (SW 900; first compound 0.8 µM): 0.494
relative viability (SW 900; first compound 2.53 µM): 0.373
